One assay concerns the target KRas G12R (Homo sapiens, UniProt P01116, G12R). The assay can be described thus: biochemical. The following applies: Binding to KRas (IC50 nM) G12R, TR-FRET displacement, KRas G12R. For orientation: Time-resolved FRET reads energy transfer from a long-lived donor to a nearby acceptor.
For the next assay, the system named is ASPC1 cells. As to the kind of experiment: Inhibition of KRas-mediated phosphorylation of ERK (Cisbio HTRF pERK), ASPC1 cells. To be noted: Homo sapiens, AsPC-1 cells; for IC50: ASPC1, 3 h, 3 hr compound incubation; for inhibition at 0.1 µM: ASPC1, single point at 100 nM, 3 hrs compound incubation. It is filed as cell-based.
The target of a further assay is KRas WT (Homo sapiens, UniProt P01116). The assay can be described thus: KRas binding assay (TR-FRET displacement), KRas WT. The following applies: for inhibition at 0.01 µM: single point, 10 nM compound; for IC50: TR-FRET displacement.
In a further assay the target is KRas G12S (Homo sapiens, UniProt P01116, G12S). The class given is binding. The following applies: for inhibition at 0.01 µM: single point, 10 nM compound, read-out: Binding to KRas (% inhibition at 10 nM) G12S; for IC50: TR-FRET displacement, read-out: Binding to KRas (IC50 nM) G12S.
For a further assay, the target named is KRas G12D (Homo sapiens, UniProt P01116, G12D). As to the kind of experiment: biochemical. The following applies: Binding to KRas (IC50 nM) G12D, TR-FRET displacement, KRas G12D.
The subject of a further assay is H358 cells. As to the kind of experiment: Inhibition of KRas-mediated phosphorylation of ERK (Cisbio HTRF pERK), H358 cells. It is filed as cell-based. To be noted: Homo sapiens; for inhibition at 0.1 µM: NCI-H358, single point at 100 nM, 3 hrs compound incubation.
Another assay has as its system H727 cells. The assay can be described thus: Inhibition of KRas-mediated phosphorylation of ERK (Cisbio HTRF pERK), H727 cells. It is filed as cell-based. To be noted: Homo sapiens; for IC50: NCI-H727, 3 h, 3 hr compound incubation; for inhibition at 0.1 µM: NCI-H727, single point at 100 nM, 3 hrs compound incubation.
The next assay relates to HCT116 cells. The assay can be described thus: Inhibition of KRas-mediated phosphorylation of ERK (Cisbio HTRF pERK), HCT116 cells. The class given is cell-based. The following applies: Homo sapiens, HCT-116, single point at 100 nM, 3 hrs compound incubation.
Another assay addresses KRas Q61H (Homo sapiens, UniProt P01116, Q61H). The assay can be described thus: KRas binding assay (TR-FRET displacement), KRas Q61H. The following applies: for inhibition at 0.01 µM: single point, 10 nM compound; for IC50: TR-FRET displacement.
The next assay has as its system A549 cells. The assay can be described thus: Inhibition of KRas-mediated phosphorylation of ERK (Cisbio HTRF pERK), A549 cells. The class given is cell-based. To be noted: Homo sapiens; for inhibition at 0.1 µM: single point at 100 nM, 3 hrs compound incubation.
The target in the next assay is KRas G13D (Homo sapiens, UniProt P01116, G13D). It is filed as binding. The following applies: for inhibition at 0.01 µM: single point, 10 nM compound, read-out: Binding to KRas (% inhibition at 10 nM) G13D; for IC50: TR-FRET displacement, read-out: Binding to KRas (IC50 nM) G13D.
The target of the next assay is KRas G12V (Homo sapiens, UniProt P01116, G12V). As to the kind of experiment: biochemical. The following applies: Binding to KRas (IC50 nM) G12V, TR-FRET displacement, KRas G12V.
The target in a further assay is KRas G12A (Homo sapiens, UniProt P01116, G12A). The class given is binding. To be noted: for inhibition at 0.01 µM: single point, 10 nM compound, read-out: Binding to KRas (% inhibition at 10 nM) G12A; for IC50: TR-FRET displacement, read-out: Binding to KRas (IC50 nM) G12A.
A further assay concerns the target KRas G12C (Homo sapiens, UniProt P01116, G12C). The class given is binding. To be noted: for inhibition at 0.01 µM: single point, 10 nM compound, read-out: Binding to KRas (% inhibition at 10 nM) G12C; for IC50: TR-FRET displacement, read-out: Binding to KRas (IC50 nM) G12C.
The next assay concerns H460 cells. As to the kind of experiment: Inhibition of KRas-mediated phosphorylation of ERK (Cisbio HTRF pERK), H460 cells. It is filed as cell-based. To be noted: Homo sapiens, NCI-H460, single point at 100 nM, 3 hrs compound incubation.
For the next assay, the system named is MKN1 cells. As to the kind of experiment: Inhibition of KRas-mediated phosphorylation of ERK (Cisbio HTRF pERK), MKN1 cells. To be noted: Homo sapiens, MKN-1, 3 hr compound incubation. It is filed as cell-based. As to the method:
Inhibition of KRas Phosphorylation of ERK (HTRF) by Exemplary Compounds of Formula (I) Cisbio HTRF Advanced pERK Assay Catalog #64AERPEH • Cells: MKN1, PSN1 • Procedure: • Day 1: Seed 6,000 cells/well -25 µl/well in 384-well white solid bottom plate; RPM1_10% FBS.

For orientation: IC50 means the concentration needed to halve the response being measured. What is called inhibition is the relative decrease from the control value, in per cent.

Sequence of KRas G12V (P01116 1-169 isoform P01116-2 G12V): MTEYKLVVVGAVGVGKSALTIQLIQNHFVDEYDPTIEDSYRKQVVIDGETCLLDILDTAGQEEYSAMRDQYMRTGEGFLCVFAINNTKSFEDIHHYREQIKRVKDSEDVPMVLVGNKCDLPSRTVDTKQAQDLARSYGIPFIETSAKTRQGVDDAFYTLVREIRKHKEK
Sequence of KRas G12A (P01116 1-169 isoform P01116-2 G12A): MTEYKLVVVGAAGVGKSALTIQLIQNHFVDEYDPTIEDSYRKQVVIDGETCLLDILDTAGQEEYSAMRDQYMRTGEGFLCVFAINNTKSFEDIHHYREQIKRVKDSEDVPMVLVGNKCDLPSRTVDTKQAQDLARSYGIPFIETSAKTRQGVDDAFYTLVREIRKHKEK
Sequence of KRas G12C (P01116 1-169 isoform P01116-2 G12C): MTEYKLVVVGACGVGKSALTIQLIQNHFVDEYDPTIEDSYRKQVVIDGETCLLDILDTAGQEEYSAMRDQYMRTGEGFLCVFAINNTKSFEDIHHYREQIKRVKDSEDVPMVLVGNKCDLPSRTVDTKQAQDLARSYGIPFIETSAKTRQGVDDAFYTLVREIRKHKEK
Sequence of KRas G12D (P01116 1-169 isoform P01116-2 G12D): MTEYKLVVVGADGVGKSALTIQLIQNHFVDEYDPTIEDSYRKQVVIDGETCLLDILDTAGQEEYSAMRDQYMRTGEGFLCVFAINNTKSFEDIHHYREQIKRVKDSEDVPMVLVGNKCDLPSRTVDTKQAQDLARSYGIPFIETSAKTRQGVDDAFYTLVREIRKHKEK
Sequence of KRas G12R (P01116 1-169 isoform P01116-2 G12R): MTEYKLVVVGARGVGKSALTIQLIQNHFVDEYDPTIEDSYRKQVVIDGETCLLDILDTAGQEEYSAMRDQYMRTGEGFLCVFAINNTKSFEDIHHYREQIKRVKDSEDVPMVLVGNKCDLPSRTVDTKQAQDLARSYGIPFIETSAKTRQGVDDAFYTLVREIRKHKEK
Sequence of KRas WT (P01116 1-169 isoform P01116-2): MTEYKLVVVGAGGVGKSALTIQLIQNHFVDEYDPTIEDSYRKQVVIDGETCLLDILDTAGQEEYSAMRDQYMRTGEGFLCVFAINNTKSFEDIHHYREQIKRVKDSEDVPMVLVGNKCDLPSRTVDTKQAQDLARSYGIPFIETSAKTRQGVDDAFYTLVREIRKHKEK
Sequence of KRas G13D (P01116 1-169 isoform P01116-2 G13D): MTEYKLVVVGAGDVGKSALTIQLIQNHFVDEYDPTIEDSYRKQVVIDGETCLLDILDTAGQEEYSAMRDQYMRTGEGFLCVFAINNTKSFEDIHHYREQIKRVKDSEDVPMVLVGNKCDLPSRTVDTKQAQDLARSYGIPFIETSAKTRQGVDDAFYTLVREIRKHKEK
Sequence of KRas G12S (P01116 1-169 isoform P01116-2 G12S): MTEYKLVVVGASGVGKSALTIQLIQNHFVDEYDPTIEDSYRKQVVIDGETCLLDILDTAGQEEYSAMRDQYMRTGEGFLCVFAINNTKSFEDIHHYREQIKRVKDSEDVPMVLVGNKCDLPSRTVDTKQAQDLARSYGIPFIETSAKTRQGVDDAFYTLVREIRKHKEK
Sequence of KRas Q61H (P01116 1-169 isoform P01116-2 Q61H): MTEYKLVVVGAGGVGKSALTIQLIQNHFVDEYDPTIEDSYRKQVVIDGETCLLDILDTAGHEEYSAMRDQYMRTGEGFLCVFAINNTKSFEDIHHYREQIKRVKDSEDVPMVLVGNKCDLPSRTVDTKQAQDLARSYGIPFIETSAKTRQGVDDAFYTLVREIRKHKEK

As to `CCc1c(F)ccc2cc(O)cc(N3CCc4c(nc(OC[C@@]56CCCN5C[C@H](F)C6)nc4N4CCCn5nc(C(=O)N6CC7CCC6CN7)cc5C4)C3)c12` (stereo partly drawn) [Example 264, 2,5-diazabicyclo[2.2.2]octan-2-yl(5-(7-(8-ethyl-7-fluoro-3-hydroxynaphthalen-1-yl)-2-(((2R,7aS)-2-fluorohexahydro-1H-pyrrolizin-7a-yl)methoxy)-5,6,7,8-tetrahydropyrido[3,4-d]pyrimidin-4-yl)-5,6,7,8-tetrahydro-4H-pyrazolo[1,5-a][1,4]diazepin-2-yl)methanone], the 50% inhibitory concentration (IC50) at KRas G12R is under 2 nM; in the assay with ASPC1 cells (Cisbio pERK HTRF) it was 51 nM; on KRas G12D, under 2 nM; in the assay on H727 cells (Cisbio pERK HTRF), 259 nM; on KRas G12V, under 2 nM. In addition, the inhibition at 0.1 µM in the assay with ASPC1 cells was 34%; in the assay with H358 cells, 43%; in the assay with H727 cells it was 22%; in the assay on HCT116 cells, -7%; in the assay with A549 cells, 15%; in the assay with H460 cells, 0%. Moreover, the inhibition at 0.01 µM is 96% at KRas WT; 99% on KRas G12S; 98% at KRas Q61H; 97% at KRas G13D; 95% at KRas G12A; 100% on KRas G12C.

As for `CCc1c(F)ccc2cc(O)cc(N3CCc4c(nc(OC[C@@]56CCCN5C[C@H](F)C6)nc4N4CCCn5nc(CN(C)C(=O)N(C)C)cc5C4)C3)c12` [Example 288, 1-((5-(7-(8-ethyl-7-fluoro-3-hydroxynaphthalen-1-yl)-2-(((2R,7aS)-2-fluorohexahydro-1H-pyrrolizin-7a-yl)methoxy)-5,6,7,8-tetrahydropyrido[3,4-d]pyrimidin-4-yl)-5,6,7,8-tetrahydro-4H-pyrazolo[1,5-a][1,4]diazepin-2-yl)methyl)-1,3,3-trimethylurea], the IC50 at KRas G12R worked out at 9 nM; in the assay on ASPC1 cells (Cisbio pERK HTRF), 67 nM; at KRas G12D, 4 nM; with H727 cells (Cisbio pERK HTRF) it was 189 nM; on KRas G12V, 6 nM. For the same compound, the inhibition at 0.01 µM was found to be 38% at KRas WT; 53% on KRas G12S; 33% on KRas Q61H; 40% at KRas G13D; 38% on KRas G12A; 56% on KRas G12C. The inhibition at 0.1 µM in the assay on H358 cells is 26%; with HCT116 cells, 17%; in the assay on A549 cells it was 22%; with H460 cells, 3%.

In the case of `CCc1c(F)ccc2cc(O)cc(N3CCc4c(nc(OC[C@@]56CCCN5C[C@H](F)C6)nc4N4CCCc5nc(C(=O)N(C)C)sc5C4)C3)c12` [Example 304, 5-(7-(8-ethyl-7-fluoro-3-hydroxynaphthalen-1-yl)-2-(((2R,7aS)-2-fluorohexahydro-1H-pyrrolizin-7a-yl)methoxy)-5,6,7,8-tetrahydropyrido[3,4-d]pyrimidin-4-yl)-N,N-dimethyl-5,6,7,8-tetrahydro-4H-thiazolo[5,4-c]azepine-2-carboxamide], the IC50 worked out at 3 nM at KRas G12R; 54 nM in the assay with ASPC1 cells (Cisbio pERK HTRF); 3 nM at KRas G12D; 180 nM in the assay with H727 cells (Cisbio pERK HTRF); 3 nM on KRas G12V. The inhibition at 0.01 µM on KRas WT was 70%; on KRas G12S, 77%; on KRas Q61H it was 73%; on KRas G13D, 72%; on KRas G12A it was 63%; on KRas G12C it was 83%. In addition, the inhibition at 0.1 µM in the assay with H358 cells was 43%; in the assay with HCT116 cells, -15%; with A549 cells, 33%; with H460 cells, 25%.

For the compound `CC1(O)COCCN(c2nc(OCC34CCCN3CCC4)nc3c2CCN(c2cc(O)cc(Cl)c2C2CC2)C3)C1` (stereo not shown) [Example 436, 4-(7-(3-chloro-2-cyclopropyl-5-hydroxyphenyl)-2-((tetrahydro-1H-pyrrolizin-7a(5H)-yl)methoxy)-5,6,7,8-tetrahydropyrido[3,4-d]pyrimidin-4-yl)-6-methyl-1,4-oxazepan-6-ol], the IC50 on KRas G12R worked out at 17 nM; with ASPC1 cells (Cisbio pERK HTRF), 1760 nM; at KRas WT it was 10 nM; at KRas G12S, 10 nM; on KRas G12D, 7 nM; in the assay with H727 cells (Cisbio pERK HTRF), 2950 nM. Further, the 50% inhibitory concentration (IC50) is 10 nM on KRas Q61H; 10 nM on KRas G13D; 8 nM on KRas G12V; 11 nM at KRas G12A; 8 nM at KRas G12C. Also, the inhibition at 0.1 µM was -12% in the assay on ASPC1 cells; 10% in the assay with H358 cells; 12% in the assay with H727 cells; 5% in the assay on HCT116 cells; 3% with A549 cells; -4% in the assay on H460 cells.

On to `Cc1cc2[nH]ncc2c(N2CCc3c(nc(OCC4(CN(C)C)CC4)nc3N3CCC[C@]4(C3)NC(=O)NC4=O)C2)c1C` [Example 462, (R)-7-(7-(5,6-dimethyl-1H-indazol-4-yl)-2-((1-((dimethylamino)methyl)cyclopropyl)methoxy)-5,6,7,8-tetrahydropyrido[3,4-d]pyrimidin-4-yl)-1,3,7-triazaspiro[4.5]decane-2,4-dione], for which the IC50 was 7 nM at KRas G12R; over 10000 nM in the assay with ASPC1 cells (Cisbio pERK HTRF); 9 nM at KRas WT; 9 nM at KRas G12S; 16 nM at KRas G12D; over 10000 nM in the assay on H727 cells (Cisbio pERK HTRF). The IC50 was determined as 10 nM on KRas Q61H; 9 nM on KRas G13D; 7 nM on KRas G12V; 10 nM on KRas G12A; 6 nM at KRas G12C. Moreover, the inhibition at 0.1 µM is -6% in the assay with ASPC1 cells; 1% with H358 cells; -8% in the assay on H727 cells; 3% in the assay on HCT116 cells; 8% in the assay with A549 cells; 9% with H460 cells.

In the case of `C=C1CN2CCCC2(COc2nc3c(c(N4CCCC5(CC(O)C5)C4)n2)CCN(c2cc(O)cc4ccc(F)c(CC)c24)C3)C1` (stereo not shown) [Example 660, 6-(7-(8-ethyl-7-fluoro-3-hydroxynaphthalen-1-yl)-2-((2-methylenetetrahydro-1H-pyrrolizin-7a(5H)-yl)methoxy)-5,6,7,8-tetrahydropyrido[3,4-d]pyrimidin-4-yl)-6-azaspiro[3.5]nonan-2-ol], the IC50 in the assay with ASPC1 cells was 261 nM; on KRas WT, under 2 nM; on KRas G12S, under 2 nM; on KRas G12D, 3 nM; with H358 cells (NCI-H358, 3 h, 3 hr compound incubation) it was 25 nM; in the assay with H727 cells, 204 nM. In addition, the IC50 is 28.2 nM in the assay on MKN1 cells; 131 nM in the assay with A549 cells (A549, 3 h, 3 hr compound incubation); under 2 nM on KRas G12V; under 2 nM on KRas G12C.

Source of the values: patent US20250368649A1, “TETRAHYDROPYRIDOPYRIMIDINE PAN-KRAS INHIBITORS” (Mirati Therapeutics, Inc., priority 2022, published 2025).
